Experimental data from patent publication US9127000B2, “Heterocyclic compounds and uses thereof” (Intellikine, LLC., priority 2011, dated 2015).

What was measured:
Assay type in all cases: biochemical
PI3K α = molecular target: T1, PI3K α (Homo sapiens, UniProt P42336); test: PI3-kinase HTRF inhibition assay, PI3K α; conditions: in vitro
T1 construct: purchased Upstate
Protocol: (§1) Commercial kits or systems for assaying PI3-K activities are available. The commercially available kits or systems can be used to screen for inhibitors and/or agonists of PI3-Ks including but not limited to PI 3-Kinase α, β, δ, and γ. Anr exemplary system is PI 3-Kinase (human) HTRF™ Assay from Upstate. […] Briefly, the assay is a time resolved FRET assay that indirectly measures PIP3 product formed by the activity of a PI3-K. The kinase reaction is performed in a microtitre plate (e.g., a 384 well microtitre plate). The total reaction volume is approximately 20 ul per well. In the first step, each well receives 2 ul of test compound in 20% dimethylsulphoxide resulting in a 2% DMSO final concentration. Next, approximately 14.5 ul of a kinase/PIP2 mixture (diluted in 1× reaction buffer) is added per well for a final concentration of 0.25-0.3 ug/ml kinase and 10 μM PIP2. The plate is sealed and incubated for 15 minutes at room temperature. To start the reaction, 3.5 ul of ATP (diluted in 1× reaction buffer) is added per well for a final concentration of 10 μM ATP. The plate is sealed and incubated for 1 hour at room temperature. The reaction is stopped by adding 5ul of Stop Solution per well and then 5 ul of Detection Mix is added per well. The plate is sealed, incubated for 1 hour at room temperature, and then read on an appropriate plate reader. Data is analyzed and IC50s are generated using GraphPad Prism 5. For PI3K α, β, δ, and γ, the nM concentration of inhibitor to reach IC50 is provided Inhibition of PI3K a at lower concentrations than those for β, δ, and γ provides evidence of specificity within this group of kinases. Similar assays, and others known in the art, can be used to measure the percent inhibition of other kinases, including but not limited to PI3K class II kinases, phosphoinositide 4 kinases (PI4K), and phosphoinositide 5 kinases (PI5K).

PI3K β = molecular target: T2, PI3K β (Homo sapiens, UniProt P42338); test: PI3-kinase HTRF inhibition assay, PI3K β; conditions: in vitro
T2 construct: purchased Upstate
Protocol: as §1

PI3K δ = molecular target: T3, PI3K δ (Homo sapiens, UniProt O00329); test: PI3-kinase HTRF inhibition assay, PI3K δ; conditions: in vitro
T3 construct: purchased Upstate
Protocol: as §1

PI3K γ = molecular target: T4, PI3K γ (Homo sapiens, UniProt P48736); test: PI3-kinase HTRF inhibition assay, PI3K γ; conditions: in vitro
T4 construct: purchased Upstate
Protocol: as §1

mTORC = molecular target: T5, mTORC (Homo sapiens, UniProt P42345); test: mTOR inhibition assay (in vitro IC50)
T5 construct: purchased Invitrogen
Protocol: The cross-activity or lack thereof of one or more compounds of the present invention against mTor can be measured according to any procedures known in the art or methods disclosed below. The compounds described herein can be tested against recombinant mTOR (Invitrogen) in an assay containing 50 mM HEPES, pH 7.5, 1 mM EGTA, 10 mM MgCl2, 2.5 mM, 0.01% Tween, 10 μM ATP (2.5 μCi of […]), and 3 μg/mL BSA. Rat recombinant PHAS-1/4EBP1 (Calbiochem; 2 mg/mL) is used as a substrate. Reactions are terminated by spotting onto nitrocellulose, which is washed with 1M NaCl/1% phosphoric acid (approximately 6 times, 5-10 minutes each). Sheets are dried and the transferred radioactivity quantitated by phosphorimaging.
Other kits or systems for assaying mTOR activity are commercially available. For instance, one can use Invitrogen's LanthaScreen™ Kinase assay to test the inhibitors of mTOR disclosed herein. This assay is a time resolved FRET platform that measures the phosphorylation of GFP labeled 4EBP1 by mTOR kinase. The kinase reaction is performed in a white 384 well microtitre plate. The total reaction volume is 20 ul per well and the reaction buffer composition is 50 mM HEPES pH7.5, 0.01% Polysorbate 20, 1 mM EGTA, 10 mM MnCl2, and 2 mM DTT. In the first step, each well receives 2 ul of test compound in 20% dimethylsulphoxide resulting in a 2% DMSO final concentration. Next, 8 ul of mTOR diluted in reaction buffer is added per well for a 60 ng/ml final concentration. To start the reaction, 10 ul of an ATP/GFP-4EBP1 mixture (diluted in reaction buffer) is added per well for a final concentration of 10 μM ATP and 0.5 μM GFP-4EBP1. The plate is sealed and incubated for 1 hour at room temperature. The reaction is stopped by adding 10 ul per well of a Tb-anti-pT46 4EBP1 antibody/EDTA mixture (diluted in TR-FRET buffer) for a final concentration of 1.3 nM antibody and 6.7 mM EDTA. The plate is sealed, incubated for 1 hour at room temperature, and then read on a plate reader set up for LanthaScreen™ TR-FRET. Data is analyzed and IC50s are generated using GraphPad Prism 5.

T1 sequence (P42336 whole entry): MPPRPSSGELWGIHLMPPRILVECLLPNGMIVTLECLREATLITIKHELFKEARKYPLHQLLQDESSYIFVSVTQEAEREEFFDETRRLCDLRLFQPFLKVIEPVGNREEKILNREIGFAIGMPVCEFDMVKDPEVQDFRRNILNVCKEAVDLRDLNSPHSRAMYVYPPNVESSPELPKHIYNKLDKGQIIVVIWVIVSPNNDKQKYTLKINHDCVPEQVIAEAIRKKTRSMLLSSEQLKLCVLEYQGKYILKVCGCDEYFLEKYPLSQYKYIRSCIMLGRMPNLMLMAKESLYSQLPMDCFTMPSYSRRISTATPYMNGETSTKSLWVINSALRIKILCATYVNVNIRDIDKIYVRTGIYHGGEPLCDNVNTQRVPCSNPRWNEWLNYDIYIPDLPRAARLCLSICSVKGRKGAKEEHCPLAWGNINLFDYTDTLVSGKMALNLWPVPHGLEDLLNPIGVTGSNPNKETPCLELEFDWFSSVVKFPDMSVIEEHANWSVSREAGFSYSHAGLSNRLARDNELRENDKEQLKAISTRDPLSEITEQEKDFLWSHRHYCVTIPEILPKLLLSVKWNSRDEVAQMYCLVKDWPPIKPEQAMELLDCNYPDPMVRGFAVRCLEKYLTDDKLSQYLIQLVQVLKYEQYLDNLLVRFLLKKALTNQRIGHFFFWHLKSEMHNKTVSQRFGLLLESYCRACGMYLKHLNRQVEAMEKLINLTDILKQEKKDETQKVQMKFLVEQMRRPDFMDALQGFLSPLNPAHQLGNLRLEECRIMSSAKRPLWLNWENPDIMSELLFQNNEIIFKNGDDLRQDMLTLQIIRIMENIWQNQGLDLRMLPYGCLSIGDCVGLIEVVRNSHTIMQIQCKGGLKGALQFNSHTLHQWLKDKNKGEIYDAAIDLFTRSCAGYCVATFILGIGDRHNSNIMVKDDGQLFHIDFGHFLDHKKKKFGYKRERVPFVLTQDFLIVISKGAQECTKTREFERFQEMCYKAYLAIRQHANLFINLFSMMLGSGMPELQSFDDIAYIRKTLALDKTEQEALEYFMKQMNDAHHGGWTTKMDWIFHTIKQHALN
T1 sequence (P27986 whole entry partner): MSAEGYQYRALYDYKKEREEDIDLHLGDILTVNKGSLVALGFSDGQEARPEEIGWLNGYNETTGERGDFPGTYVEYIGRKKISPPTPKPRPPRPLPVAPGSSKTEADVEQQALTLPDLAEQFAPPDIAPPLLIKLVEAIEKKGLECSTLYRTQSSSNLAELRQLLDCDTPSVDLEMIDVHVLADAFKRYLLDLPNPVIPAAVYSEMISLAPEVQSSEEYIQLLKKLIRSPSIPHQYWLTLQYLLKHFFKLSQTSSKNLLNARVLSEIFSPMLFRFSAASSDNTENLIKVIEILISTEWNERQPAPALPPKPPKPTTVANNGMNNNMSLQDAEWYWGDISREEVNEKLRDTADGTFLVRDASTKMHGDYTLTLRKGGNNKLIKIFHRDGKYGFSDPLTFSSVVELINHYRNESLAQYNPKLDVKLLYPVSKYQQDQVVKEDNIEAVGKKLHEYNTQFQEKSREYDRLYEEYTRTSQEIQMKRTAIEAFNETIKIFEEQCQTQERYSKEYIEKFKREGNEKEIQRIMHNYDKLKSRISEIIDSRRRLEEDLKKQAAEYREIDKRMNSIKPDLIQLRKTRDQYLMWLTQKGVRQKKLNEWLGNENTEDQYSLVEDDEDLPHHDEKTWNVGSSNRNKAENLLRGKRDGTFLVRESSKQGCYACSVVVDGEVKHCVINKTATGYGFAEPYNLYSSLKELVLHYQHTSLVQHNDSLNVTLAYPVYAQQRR
T2 sequence (P42338 whole entry): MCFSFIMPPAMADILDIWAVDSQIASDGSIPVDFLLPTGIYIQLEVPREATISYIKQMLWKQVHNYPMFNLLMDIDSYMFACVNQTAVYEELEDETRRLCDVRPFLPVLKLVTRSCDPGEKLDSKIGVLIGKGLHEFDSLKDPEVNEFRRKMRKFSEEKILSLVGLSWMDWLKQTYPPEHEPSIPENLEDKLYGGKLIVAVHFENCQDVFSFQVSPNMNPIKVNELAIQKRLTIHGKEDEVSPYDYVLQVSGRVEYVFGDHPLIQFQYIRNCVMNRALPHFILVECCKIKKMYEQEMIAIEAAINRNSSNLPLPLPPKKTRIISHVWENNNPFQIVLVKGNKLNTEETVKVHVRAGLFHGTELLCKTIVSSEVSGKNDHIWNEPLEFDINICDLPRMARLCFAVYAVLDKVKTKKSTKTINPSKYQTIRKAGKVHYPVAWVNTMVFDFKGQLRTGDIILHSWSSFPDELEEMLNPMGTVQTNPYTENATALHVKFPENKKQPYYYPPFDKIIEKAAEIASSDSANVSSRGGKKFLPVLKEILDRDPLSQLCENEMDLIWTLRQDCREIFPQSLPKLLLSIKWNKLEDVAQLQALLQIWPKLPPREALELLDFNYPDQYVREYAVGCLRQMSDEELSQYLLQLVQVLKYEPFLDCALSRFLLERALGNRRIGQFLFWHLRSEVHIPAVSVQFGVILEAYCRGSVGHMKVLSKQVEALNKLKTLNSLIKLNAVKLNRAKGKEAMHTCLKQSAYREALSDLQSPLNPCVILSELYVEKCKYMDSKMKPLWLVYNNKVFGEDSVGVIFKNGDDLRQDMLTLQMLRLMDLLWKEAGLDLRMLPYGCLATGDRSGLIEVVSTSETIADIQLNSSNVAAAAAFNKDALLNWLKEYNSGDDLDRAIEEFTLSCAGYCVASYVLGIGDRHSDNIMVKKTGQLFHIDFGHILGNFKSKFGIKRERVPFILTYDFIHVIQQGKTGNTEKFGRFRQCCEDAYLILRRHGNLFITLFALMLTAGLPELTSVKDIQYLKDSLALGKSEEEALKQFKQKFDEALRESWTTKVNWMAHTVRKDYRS
T2 sequence (P27986 whole entry partner): as the sequence (P27986 whole entry partner) above
T4 sequence (P48736 whole entry): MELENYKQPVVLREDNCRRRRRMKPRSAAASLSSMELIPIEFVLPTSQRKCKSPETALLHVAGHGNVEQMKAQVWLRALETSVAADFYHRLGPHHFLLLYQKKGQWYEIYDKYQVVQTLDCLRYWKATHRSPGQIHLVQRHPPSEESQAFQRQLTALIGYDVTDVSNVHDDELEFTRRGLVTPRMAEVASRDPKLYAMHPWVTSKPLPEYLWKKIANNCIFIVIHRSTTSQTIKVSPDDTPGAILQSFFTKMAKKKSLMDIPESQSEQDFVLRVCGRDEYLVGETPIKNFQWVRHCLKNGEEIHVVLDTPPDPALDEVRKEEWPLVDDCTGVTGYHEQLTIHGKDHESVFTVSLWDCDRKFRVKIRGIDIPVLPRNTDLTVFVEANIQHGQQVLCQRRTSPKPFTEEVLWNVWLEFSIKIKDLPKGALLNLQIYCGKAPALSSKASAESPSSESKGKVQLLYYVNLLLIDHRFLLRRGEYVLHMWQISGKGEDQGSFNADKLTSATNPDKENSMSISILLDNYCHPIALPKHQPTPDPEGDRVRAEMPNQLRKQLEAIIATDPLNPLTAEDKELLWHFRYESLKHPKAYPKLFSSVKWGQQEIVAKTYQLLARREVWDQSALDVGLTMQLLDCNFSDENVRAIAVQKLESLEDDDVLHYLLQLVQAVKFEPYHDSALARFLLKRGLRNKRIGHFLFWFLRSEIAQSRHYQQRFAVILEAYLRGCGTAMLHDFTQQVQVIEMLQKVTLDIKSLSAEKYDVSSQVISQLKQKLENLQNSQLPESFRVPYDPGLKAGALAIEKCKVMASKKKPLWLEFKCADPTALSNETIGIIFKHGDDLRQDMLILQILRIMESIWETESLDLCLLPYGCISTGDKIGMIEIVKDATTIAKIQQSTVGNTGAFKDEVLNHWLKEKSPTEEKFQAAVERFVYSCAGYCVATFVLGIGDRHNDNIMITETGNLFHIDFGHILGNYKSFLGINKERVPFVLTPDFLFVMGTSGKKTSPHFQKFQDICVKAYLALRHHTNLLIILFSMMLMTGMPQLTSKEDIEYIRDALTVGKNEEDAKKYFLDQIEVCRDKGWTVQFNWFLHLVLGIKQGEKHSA
T3 sequence (O00329 whole entry): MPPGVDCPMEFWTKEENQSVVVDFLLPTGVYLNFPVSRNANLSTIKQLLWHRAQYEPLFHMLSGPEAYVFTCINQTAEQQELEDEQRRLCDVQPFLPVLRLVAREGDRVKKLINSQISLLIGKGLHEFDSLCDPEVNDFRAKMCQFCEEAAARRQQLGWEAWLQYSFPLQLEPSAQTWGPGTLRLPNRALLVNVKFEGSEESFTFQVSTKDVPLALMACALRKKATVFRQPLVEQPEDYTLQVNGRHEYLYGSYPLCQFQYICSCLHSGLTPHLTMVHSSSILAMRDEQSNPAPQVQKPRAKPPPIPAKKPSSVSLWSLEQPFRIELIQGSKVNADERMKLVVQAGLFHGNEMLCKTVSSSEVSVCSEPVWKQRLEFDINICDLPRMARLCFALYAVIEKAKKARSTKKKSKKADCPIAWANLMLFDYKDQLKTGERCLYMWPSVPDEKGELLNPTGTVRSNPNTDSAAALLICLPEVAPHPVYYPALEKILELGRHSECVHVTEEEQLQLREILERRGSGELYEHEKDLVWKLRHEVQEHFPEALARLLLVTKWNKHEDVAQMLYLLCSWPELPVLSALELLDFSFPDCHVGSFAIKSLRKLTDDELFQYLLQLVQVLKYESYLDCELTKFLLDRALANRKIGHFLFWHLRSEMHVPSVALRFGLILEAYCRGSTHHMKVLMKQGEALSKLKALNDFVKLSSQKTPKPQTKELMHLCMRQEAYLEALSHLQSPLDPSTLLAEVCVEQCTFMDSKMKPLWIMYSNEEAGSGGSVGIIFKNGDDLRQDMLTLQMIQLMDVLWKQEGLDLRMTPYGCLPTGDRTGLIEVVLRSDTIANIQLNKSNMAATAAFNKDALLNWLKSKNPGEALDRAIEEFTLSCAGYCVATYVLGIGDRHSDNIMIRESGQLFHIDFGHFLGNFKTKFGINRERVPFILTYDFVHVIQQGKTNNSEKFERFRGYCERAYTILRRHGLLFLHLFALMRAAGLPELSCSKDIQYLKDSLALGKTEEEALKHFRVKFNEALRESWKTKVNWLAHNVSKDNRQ
T3 sequence (P27986 whole entry partner): as the sequence (P27986 whole entry partner) above

Q: `Cc1ncc(-c2ccc3ncc(C(=O)N4CCOCC4)n3c2)c2cn[nH]c12` [Compound 1] was tested. Which IC50 (PI3K α) did it give?
A: < 0.1 µM

Q: What about the IC50 (PI3K β) of the same compound?
A: > 10 µM

Q: And the IC50 (PI3K δ)?
A: < 10 µM

Q: What about the IC50 (PI3K γ) of the same compound?
A: > 10 µM

Q: `[2H]c1c(-c2ccc3ncc(C(=O)N4CCOCC4)n3c2)c([2H])c2nc(N)oc2c1[2H]` [Compound 2] was tested. Which IC50 (PI3K α) did it give?
A: < 0.1 µM

Q: And the IC50 (PI3K β)?
A: < 10 µM

Q: And the IC50 (PI3K δ)?
A: > 10 µM

Q: And the IC50 (PI3K γ)?
A: < 0.1 µM

Q: For `O=C(c1cnc2ccc(-c3ccnc4[nH]ncc34)cn12)N1CCOCC1` [Compound 3], which IC50 (mTORC) is on record?
A: > 10 µM

Q: And the IC50 (PI3K α)?
A: < 10 µM

Q: And the IC50 (PI3K β)?
A: > 10 µM

Q: And the IC50 (PI3K δ)?
A: > 10 µM

Q: And the IC50 (PI3K γ)?
A: > 10 µM

Q: With `CN1CC2CN(C(=O)c3cnc4ccc(-c5ccc6oc(N)nc6c5)cn34)CC2C1` (stereo not shown) [Compound 4] as the compound, how does the IC50 (mTORC) read?
A: > 10 µM

Q: And the IC50 (PI3K α)?
A: < 0.1 µM

Q: And the IC50 (PI3K β)?
A: < 1 µM

Q: What about the IC50 (PI3K δ) of the same compound?
A: < 1 µM

Q: What about the IC50 (PI3K γ) of the same compound?
A: < 1 µM

Q: What does the source list for `O=C(c1cnc2ccc(-c3cnc4cc[nH]c4c3)cn12)N1CCOCC1` [Compound 5]?
A: IC50 (PI3K α): < 10 µM; IC50 (PI3K β): > 10 µM; IC50 (PI3K δ): > 10 µM; IC50 (PI3K γ): > 10 µM

Q: For `O=C(c1cnc2ccc(-c3cnc4cn[nH]c4c3)cn12)N1CCOCC1` [Compound 6], which IC50 (PI3K β) is on record?
A: > 10 µM

Q: What about the IC50 (PI3K δ) of the same compound?
A: > 10 µM

Q: What about the IC50 (PI3K γ) of the same compound?
A: > 10 µM

Q: Which results are given for `Cc1ncc(-c2ccc3ncc(C(=O)N4CCOCC4)n3c2)c2cc[nH]c12` [Compound 7]?
A: IC50 (PI3K α): < 10 µM; IC50 (PI3K β): > 10 µM; IC50 (PI3K δ): > 10 µM; IC50 (PI3K γ): > 10 µM

Q: With `Cn1ncc2c(-c3ccc4ncc(C(=O)N5CCOCC5)n4c3)cncc21` [Compound 8] as the compound, how does the IC50 (PI3K α) read?
A: < 10 µM

Q: And the IC50 (PI3K β)?
A: > 10 µM

Q: And the IC50 (PI3K δ)?
A: > 10 µM

Q: What about the IC50 (PI3K γ) of the same compound?
A: < 10 µM

Q: For `Cc1ncc(-c2ccc3ncc(C(=O)N4C5CCC4COC5)n3c2)c2cn[nH]c12` [Compound 9], which IC50 (mTORC) is on record?
A: > 10 µM

Q: What about the IC50 (PI3K α) of the same compound?
A: < 0.1 µM

Q: And the IC50 (PI3K β)?
A: > 10 µM

Q: What about the IC50 (PI3K δ) of the same compound?
A: < 10 µM

Q: What about the IC50 (PI3K γ) of the same compound?
A: > 10 µM

Q: Which IC50 (PI3K α) does the source give for `O=C(c1cnc2ccc(-c3cncc4c3cnn4CCO)cn12)N1CCOCC1` [Compound 10] here?
A: > 10 µM

Q: What about the IC50 (PI3K β) of the same compound?
A: > 10 µM

Q: What about the IC50 (PI3K δ) of the same compound?
A: > 10 µM

Q: What about the IC50 (PI3K γ) of the same compound?
A: > 10 µM

Q: `Nc1nc2cc(-c3cnc4ccc(C(=O)N5C6CCC5COC6)cn34)ccc2o1` [Compound 11] was tested. Which IC50 (PI3K α) did it give?
A: > 10 µM

Q: And the IC50 (PI3K β)?
A: > 10 µM

Q: And the IC50 (PI3K δ)?
A: > 10 µM

Q: And the IC50 (PI3K γ)?
A: > 10 µM

Q: With `Nc1nc2cc(-c3cnc4ccc(C(=O)N5CCOCC5)cn34)ccc2o1` [Compound 12] as the compound, how does the IC50 (PI3K α) read?
A: > 10 µM

Q: And the IC50 (PI3K β)?
A: > 10 µM

Q: And the IC50 (PI3K δ)?
A: > 10 µM

Q: `CN1CCN(c2nnc3ccc(-c4ccc5nc(N)oc5c4)cn23)CC1` [Compound 13] was tested. Which IC50 (PI3K α) did it give?
A: > 10 µM

Q: What about the IC50 (PI3K β) of the same compound?
A: > 10 µM

Q: What about the IC50 (PI3K δ) of the same compound?
A: > 10 µM

Q: And the IC50 (PI3K γ)?
A: > 10 µM

Q: What does the source list for `Cc1cc(-c2ccc3nc(N)oc3c2)cn2c(-c3ccncc3)nnc12` [Compound 14]?
A: IC50 (PI3K α): > 10 µM; IC50 (PI3K β): < 10 µM; IC50 (PI3K δ): > 10 µM; IC50 (PI3K γ): > 10 µM

Q: What does the source list for `Nc1nc2ccc(-c3ccc4ncc(C(=O)N5CCOCC5)n4c3)cc2[nH]1` [Compound 15]?
A: IC50 (PI3K α): < 1 µM; IC50 (PI3K β): > 10 µM; IC50 (PI3K δ): > 10 µM; IC50 (PI3K γ): > 10 µM

Q: Which IC50 (PI3K α) does the source give for `CN1CCN(CCc2nnc3ccc(-c4ccc5nc(N)oc5c4)cn23)CC1` [Compound 16] here?
A: > 10 µM

Q: What about the IC50 (PI3K β) of the same compound?
A: > 10 µM

Q: And the IC50 (PI3K δ)?
A: > 10 µM

Q: What about the IC50 (PI3K γ) of the same compound?
A: > 10 µM

Q: Which results are given for `Cc1cc(-c2ccc3nc(N)oc3c2)cn2c(N3CCN(C)CC3)nnc12` [Compound 17]?
A: IC50 (PI3K α): > 10 µM; IC50 (PI3K β): > 10 µM; IC50 (PI3K δ): > 10 µM; IC50 (PI3K γ): > 10 µM

Q: `CN1CCN(Cc2nnc3ccc(-c4ccc5nc(N)oc5c4)cn23)CC1` [Compound 18] was tested. Which IC50 (PI3K α) did it give?
A: > 10 µM

Q: And the IC50 (PI3K β)?
A: > 10 µM

Q: What about the IC50 (PI3K δ) of the same compound?
A: > 10 µM

Q: And the IC50 (PI3K γ)?
A: > 10 µM

Q: `Cc1cc(-c2ccc3nc(N)oc3c2)cn2c(CCN3CCN(C)CC3)nnc12` [Compound 19] was tested. Which IC50 (PI3K α) did it give?
A: > 10 µM

Q: What about the IC50 (PI3K β) of the same compound?
A: > 10 µM

Q: What about the IC50 (PI3K δ) of the same compound?
A: > 10 µM

Q: What about the IC50 (PI3K γ) of the same compound?
A: > 10 µM

Q: How did the IC50 (PI3K α) turn out when `Cc1cc(-c2ccc3nc(N)oc3c2)cn2c(CN3CCN(C)CC3)nnc12` [Compound 20] was run?
A: > 10 µM

Q: What about the IC50 (PI3K β) of the same compound?
A: > 10 µM

Q: What about the IC50 (PI3K δ) of the same compound?
A: > 10 µM

Q: What about the IC50 (PI3K γ) of the same compound?
A: > 10 µM

Q: How did the IC50 (PI3K α) turn out when `Nc1nc2cc(-c3ccc4ncc(C(=O)NCCOCCO)n4c3)ccc2o1` [Compound 21] was run?
A: < 1 µM

Q: And the IC50 (PI3K β)?
A: < 10 µM

Q: And the IC50 (PI3K δ)?
A: < 10 µM

Q: What about the IC50 (PI3K γ) of the same compound?
A: < 1 µM

Q: Which results are given for `Nc1nc2cc(-c3ccc4ncc(C(=O)NCCOCC(=O)O)n4c3)ccc2o1` [Compound 22]?
A: IC50 (PI3K α): < 0.1 µM; IC50 (PI3K β): < 1 µM; IC50 (PI3K γ): < 0.1 µM
